Values joined by “and” are separate entries in the source; they are usually repeats but may differ in a detail not shown here. Equal values may be shown once.
Legend:
[1] = system: AUD patients; assay: Double-blind randomized trial of psilocybin-assisted treatment of AUD: drinking outcomes by timeline followback; format: in vivo, human; settings: for % of Heavy drinking days (PHDD), mean: 32-week double-blind follow-up (weeks 5-36) after first dose, oral psilocybin 25 mg/70 kg then 25-40 mg/70 kg or diphenhydramine 50 mg then 50-100 mg at weeks 4 and 8, with psychotherapy; for Abstinence, NNT / Abstinence, OR / No heavy drinking, NNT / No heavy drinking, OR / WHO risk level Decrease 1, NNT / WHO risk level Decrease 1, OR / WHO risk level Decrease 2, NNT / WHO risk level Decrease 2, OR / WHO risk level Decrease 3, NNT / WHO risk level Decrease 3, OR: psilocybin vs diphenhydramine
Procedure: Design: In this double-blind trial, participants were offered 12 weeks of manualized psychotherapy and were randomly assigned to receive psilocybin vs. diphenhydramine during two day-long medication sessions at week 4 and 8. Outcomes were assessed over the 32-week double-blind period following the first dose of study medication.
Interventions: Study medications were psilocybin 25 mg/70 kg vs. diphenhydramine 50 mg (first session) and psilocybin 25-40 mg/70 kg vs. diphenhydramine 50-100 mg (second session). Psychotherapy included motivational enhancement therapy and cognitive-behavioral therapy.
Qualifying participants were assessed at screening, baseline (week 0), and weeks 4, 5, 8, 9, 12, 24, and 36. They were randomly assigned in a 1:1 ratio to receive either psilocybin or diphenhydramine, administered in two eight-hour sessions at weeks 4 and 8. All participants who completed the double-blind observation period (weeks 5-36) and still met safety criteria were offered an open-label psilocybin session at week 38, including four additional psychotherapy sessions and assessment for an additional 18 weeks. Participants received up to a total of $560 for completing assessments in the course of the trial, but were not reimbursed for attending the therapy and medication sessions.
All participants were offered a total of 12 psychotherapy sessions from a team of two therapists including a licensed psychiatrist: 4 before the first medication session, 4 between the first and second medication sessions, and 4 in the month following the second medication session. The psychotherapy, described in detail in a separate publication,^41 included motivational interviewing and cognitive behavioral therapy for AUD as well as material designed to help the participants to manage and make use of the psychoactive effects of the study medication.
Study medication was taken orally in a single opaque capsule of unvarying appearance and weight. Psilocybin doses were weight-based to control for participant body weight, which ranged from 49.0 to 116.1 (mean=78.3, SD=15.6) kg. Doses for the first session were psilocybin 25 mg/70 kg or diphenhydramine 50 mg. Participants received an increased dose in the second session if there were no dose-limiting adverse events and they agreed to the increase. The increased dose of psilocybin was 30 mg/70 kg if the participant's total score on the Pahnke-Richards Mystical Experience Questionnaire (MEQ)^42 was ≥0.6 in the first session (indicating a robust subjective response to the 25 mg/70 kg dose), or 40 mg/70 kg if the MEQ total score in the first session was <0.6. The increased dose of diphenhydramine was 100 mg, regardless of subjective response.
Study medication was administered at approximately 9 AM, after which participants were required to stay in the session room with the therapists for at least 8 hours (except for bathroom breaks). During the session, participants were encouraged to lie on a couch wearing eyeshades and headphones providing a standardized playlist of music. Medications were available in the session room to treat hypertension, severe anxiety, or psychotic symptoms.
The pre-specified primary drinking outcome was the percentage of heavy drinking days (PH DD) during […], assessed at weeks 8, 12, 24, and 36 using the timeline followback, a reliable and valid calendar-based method which is the gold standard outcome for AUD clinical trials.^43-47 Secondary outcomes included percent drinking days (PDD), average drinks per day (DPD), and dichotomous outcomes: abstinence, lack of heavy drinking days, and reduction in World Health Organization risk level^48 by one, two, or three levels. Hair or fingernail samples were collected at week 24 and assayed for ethylglucuronide (EtG) concentration to confirm self-reported abstinence. The Short Index of Problems (SIP-2R)^49 was used to assess drinking-related problems at baseline and weeks 12, 24, and 36. […]

[2] = system: AUD patients; assay: Drinking-related problems, Short Index of Problems (SIP-2R); format: in vivo, human; settings: week 36
Text: The pre-specified primary drinking outcome was the percentage of heavy drinking days (PH DD) during […], assessed at weeks 8, 12, 24, and 36 using the timeline followback, a reliable and valid calendar-based method which is the gold standard outcome for AUD clinical trials.^43-47 Secondary outcomes included percent drinking days (PDD), average drinks per day (DPD), and dichotomous outcomes: abstinence, lack of heavy drinking days, and reduction in World Health Organization risk level^48 by one, two, or three levels. Hair or fingernail samples were collected at week 24 and assayed for ethylglucuronide (EtG) concentration to confirm self-reported abstinence. The Short Index of Problems (SIP-2R)^49 was used to assess drinking-related problems at baseline and weeks 12, 24, and 36.
Treatment contrasts for dichotomous outcomes were obtained using Chi-squared statistics. Effects of treatment on problems related to drinking were compared using univariate mixed models for repeated measures (MMRM) and generalized linear models. Hedges'g was computed as a measure of effect size for between- and within-group differences on continuous outcomes, and odds ratios were computed for dichotomous outcomes. No correction was made for multiple comparisons, so analyses of secondary outcomes should be considered exploratory.

[3] = system: AUD patients; assay: Safety: blood pressure, heart rate and adverse events in the trial; format: in vivo, human
Procedure: Blood pressure and heart rate were assessed at 30- to 60-minute intervals during the first 6 hours of each medication session. Adverse events were solicited at each post-screening assessment.
Blood pressure and heart rate treatment contrasts were based on MMRM with fixed, categorical effects of treatment and assessment, a treatment-by-assessment interaction, and a fixed covariate (value of each outcome prior to drug administration). All adverse events occurring after informed consent were MedDRA-coded and tabulated, and prevalence within treatment groups (proportion of participants affected) was compared using Fisher's exact tests.

[4] = system: AUD patients; assay: Subjective effects of study medication, Mystical Experience Questionnaire (MEQ); format: in vivo, human
Procedure: Subjective effects of psilocybin vs. diphenhydramine were assessed using the States of Consciousness Questionnaire,^42 containing the 43-item Mystical Experience Questionnaire (MEQ), completed immediately after each medication session.
MEQ scores for the first and second medication sessions were computed and contrasted by group (psilocybin vs. diphenhydramine) using t-tests for independent samples.

[5] = system: alcohol-dependent participants; settings: psilocybin 21-28 mg/70 kg, open-label; cited from earlier work
[6] = system: alcohol-dependent participants; settings: meta-analysis, 95% confidence interval 1.36-2.84; cited from earlier work
[7] = 32-week double-blind follow-up (weeks 5-36)
[8] = 32 weeks following the first administration of study medication
[9] = treatment-emergent, within 48 hours of study drug administration

Question: Which results are given for `CN(C)CCc1c[nH]c2cccc(OP(=O)(O)O)c12` [Psilocybin, [3-[2-(dirnethylamino)ethyl]-1H-indo1-4-yl] dihydrogen phosphate]?
Answer: % of Drinking days, between-group Hedges g ([1]; 32-week double-blind follow-up): 0.4; % of Drinking days, between-group mean difference (diphenhydramine-psilocybin) ([1]; 32-week double-blind follow-up): 13.44%; Drinks per day, between-group Hedges g ([1]; 32-week double-blind follow-up): 0.54; Drinks per day, between-group mean difference (diphenhydramine-psilocybin) ([1]; 32-week double-blind follow-up): 1.09 Drinks per day; % of Drinking days (PDD), mean [1, 7]: 29.39%; % of Heavy drinking days, between-group mean difference (diphenhydramine-psilocybin) [1, 7]: 13.86%; Drinks per day (DPD), mean [1, 7]: 1.17 Drinks per day; % of Heavy drinking days (PHDD), mean [1]: 9.71%; % of Heavy drinking days (PHDD), mean ([1]; listed as psilocybin): 9.7%; % of Heavy drinking days, between-group mean difference (diphenhydramine-psilocybin) ([1]; 32-week double-blind follow-up (weeks 5-36), listed as psilocybin): 13.86% and 13.9%; % of Heavy drinking days, between-group Hedges g ([1]; 32-week double-blind follow-up, positive = lower mean in psilocybin group): 0.52; PHDD of psilocybin-treated participants as percent of that in the diphenhydramine-treated group ([1]; 32 weeks of double-blind observation): 41%; Abstinence, % of participants ([1]; Weeks 5-36): 22.9%; Abstinence, No. of participants ([1]; Weeks 5-36): 11; No heavy drinking, % of participants ([1]; Weeks 5-36): 33.3%; No heavy drinking, No. of participants ([1]; Weeks 5-36): 16; WHO risk level Decrease 1, % of participants ([1]; Weeks 5-36): 83.3%; WHO risk level Decrease 2, % of participants ([1]; Weeks 5-36): 60.4%; WHO risk level Decrease 2, No. of participants ([1]; Weeks 5-36): 29; WHO risk level Decrease 3, % of participants ([1]; Weeks 5-36): 29.2%; WHO risk level Decrease 3, No. of participants ([1]; Weeks 5-36): 14; Abstinence, NNT ([1]; Weeks 5-36): 7.1; Abstinence, OR ([1]; Weeks 5-36): 3.05; No heavy drinking, NNT ([1]; Weeks 5-36): 4.5; No heavy drinking, OR ([1]; Weeks 5-36): 4; WHO risk level Decrease 1, NNT ([1]; Weeks 5-36): 8.2; WHO risk level Decrease 1, OR ([1]; Weeks 5-36): 2.03; WHO risk level Decrease 2, NNT ([1]; Weeks 5-36): 4.9; WHO risk level Decrease 2, OR ([1]; Weeks 5-36): 2.29; WHO risk level Decrease 3, NNT ([1]; Weeks 5-36): 6.3; WHO risk level Decrease 3, OR ([1]; Weeks 5-36): 2.68; WHO risk level Decrease 1, No. of participants ([1]; Weeks 5-36, relative to 12 weeks prior to screening): 40; Abstinence, % of participants ([1]; Weeks 33-36): 47.9%; Abstinence, No. of participants ([1]; Weeks 33-36): 23; No heavy drinking, % of participants ([1]; Weeks 33-36): 62.5%; No heavy drinking, No. of participants ([1]; Weeks 33-36): 30; WHO risk level Decrease 1, % of participants ([1]; Weeks 33-36): 89.6%; WHO risk level Decrease 1, No. of participants ([1]; Weeks 33-36): 43; WHO risk level Decrease 2, % of participants ([1]; Weeks 33-36): 60.4%; WHO risk level Decrease 2, No. of participants ([1]; Weeks 33-36): 29; WHO risk level Decrease 3, % of participants ([1]; Weeks 33-36): 37.5%; WHO risk level Decrease 3, No. of participants ([1]; Weeks 33-36): 18; Abstinence, NNT ([1]; Weeks 33-36): 4.3; Abstinence, OR ([1]; Weeks 33-36): 2.84; No heavy drinking, NNT ([1]; Weeks 33-36): 4.4; No heavy drinking, OR ([1]; Weeks 33-36): 2.5; WHO risk level Decrease 1, NNT ([1]; Weeks 33-36): 4; WHO risk level Decrease 1, OR ([1]; Weeks 33-36): 4.74; WHO risk level Decrease 2, NNT ([1]; Weeks 33-36): 4.9; WHO risk level Decrease 2, OR ([1]; Weeks 33-36): 2.29; WHO risk level Decrease 3, NNT ([1]; Weeks 33-36): 5.1; WHO risk level Decrease 3, OR ([1]; Weeks 33-36): 2.78; Total Problems score, between-group Hedges' g [2]: 0.67; Total Problems score, between-group mean difference [2]: 6.41; Adverse events reported, number [3, 8]: 119; Serious adverse events [3, 8]: no serious adverse events; Time by which blood pressure was no longer significantly elevated ([3]; after drug administration): ≤ 360 min; Time until which heart rate was higher ([3]; after drug administration): approximately 300 minutes; Anxiety and nausea during administration sessions ([3]; compared with diphenhydramine): reported more frequently; Heart rate relative to diphenhydramine group ([3]; during medication sessions): higher; Systolic and diastolic blood pressure relative to diphenhydramine ([3]; during medication sessions): increased; Participants reporting passive suicidal ideation during a medication session ([3]; for 15 minutes, resolved without sequelae): One; Persistent disturbances suggestive of psychosis or hallucinogen persisting perception disorder ([3]; in vivo): no persistent disturbances; Severity of adverse events associated with administration ([3]; in vivo): mostly mild and self-limiting; Participants given diazepam 10 mg by mouth for anxiety ([3]; second medication session): Two; Headaches, participants affected / treated [3, 9]: 21/48; Headaches, percent of participants [3, 9]: 43.8%; Mean MEQ score ([4]; Session 1, psilocybin 25 mg/70 kg or diphenhydramine 50 mg): 0.59 (SD=0.24); Mean MEQ score ([4]; Session 2, psilocybin 25-40 mg/70 kg or diphenhydramine 50-100 mg): 0.64 (SD=0.21); Tolerability [5]: well tolerated

Question: Which “Odds ratio of remission during follow-up vs comparator conditions” value [6] does the source give for `CCN(CC)C(=O)[C@@H]1C=C2c3cccc4[nH]cc(c34)C[C@H]2N(C)C1` [lysergic acid diethylamide (LSD), lysergic acid diethylamide] here?
Answer: 1.96
